Among the data in patent US8921385B2, “5-substituted quinazolinone derivatives and compositions comprising and methods of using the same” (Celgene Corporation, priority 2006, dated 2014) are melting point values, retold here.

Structures are written as SMILES.

As usually defined, the melting point is the temperature of the solid-liquid transition. `CCCCCCC(=O)NCc1cccc2nc(C)n(C3CCC(=O)NC3=O)c(=O)c12` (centres unmarked) [Example 6.32, Heptanoic Acid [3-(2,6-Dioxo-Piperidin-3-yl)-2-Methyl-4-Oxo-3,4-Dihydro-Quinazolin-5-ylmethyl]-Amide] registered a melting point of 208 to 210 °C.

With `CCCCCCC(=O)Nc1cccc2nc(C)n(C3CCC(=O)NC3=O)c(=O)c12` (centres unmarked) [Example 6.23, Heptanoic Acid [3-(2,6-Dioxo-Piperidin-3-yl)-2-Methyl-4-Oxo-3,4-Dihydro-Quinazolin-5-yl]-Amide], the melting point fell in the range of 230 to 232 °C.

With `CCOC(=O)Nc1cccc2nc(C)n(C3CCC(=O)NC3=O)c(=O)c12` (centres unmarked) [Example 6.27, [3-(2,6-Dioxo-Piperidin-3-yl)-2-Methyl-4-Oxo-3,4-Dihydro-Quinazolin-5-yl]-Carbamic Acid Ethyl Ester], the melting point was 284 to 286 °C (dec.).

Regarding `Cc1nc2cccc(N)c2c(=O)n1[C@]1(C)CCC(=O)NC1=O` [Example 6.19, (R)-3-(5-Amino-2-Methyl-4-Oxoquinazolin-3(4H)-yl)-3-Methylpiperidine-2,6-Dione], the melting point fell in the range of 295 to 297 °C.

Consider `CCCC(=O)NCc1cccc2nc(C)n(C3CCC(=O)NC3=O)c(=O)c12` (centres unmarked) [Example 6.31, N-[3-(2,6-Dioxo-Piperidin-3-yl)-2-Methyl-4-Oxo-3,4-Dihydro-Quinazolin-5-ylmethyl]-Butyramide], for which the melting point was in the range of 250 to 252 °C.

In turn, `Cc1nc2cccc(CNC(=O)c3ccc(Cl)c(Cl)c3)c2c(=O)n1C1CCC(=O)NC1=O` (centres unmarked) [Example 6.56, 3,4-Dichloro-N-[3-(2,6-Dioxo-Piperidin-3-yl)-2-Methyl-4-Oxo-3,4-Dihydro-Quinazolin-5-ylmethyl]-Benzamide] yielded a melting point of 271 to 273 °C.

Turning to `COc1cccc2nc(C)n(C3CCC(=O)NC3=O)c(=O)c12` (centres unmarked) [Example 6.8, 3-(5-Methoxy-2-Methyl-4-Oxo-4H-Quinazolin-3-yl)-Piperidine-2,6-Dione], the melting point lay within 274 to 276 °C.

Compound `Cc1nc2cccc(CNC(=O)c3ccc(OC(F)(F)F)cc3)c2c(=O)n1C1CCC(=O)NC1=O` (centres unmarked) [Example 6.54, N-[3-(2,6-Dioxo-Piperidin-3-yl)-2-Methyl-4-Oxo-3,4-Dihydro-Quinazolin-5-ylmethyl]-4-Trifluoromethoxy-Benzamide] displayed a melting point of 258 to 260 °C.

Regarding `Cc1nc2cccc(C(F)(F)F)c2c(=O)n1C1CCC(=O)NC1=O` (centres unmarked) [Example 6.11, 3-(2-Methyl-4-Oxo-5-Trifluoromethyl-4H-Quinazolin-3-yl)-Piperidine-2,6-Dione], the melting point lay within 268 to 270 °C.

`Cc1nc2cccc(NC(=O)c3cccc(Cl)c3)c2c(=O)n1C1CCC(=O)NC1=O` (centres unmarked) [Example 6.36, 3-Chloro-N-[3-(2,6-Dioxo-Piperidin-3-yl)-2-Methyl-4-Oxo-3,4-Dihydro-Quinazolin-5-yl]-Benzamide] registered a melting point of 326 to 328 °C.

For the compound `Cc1cccc2nc(O)n(C3CCC(=O)NC3=O)c(=O)c12` (centres unmarked) [Example 6.5, 3-(2-Hydroxy-5-Methyl-4-Oxo-4H-Quinazolin-3-yl)-Piperidine-2,6-Dione], the melting point lay within 373 to 375 °C.

In turn, `Cc1nc2cccc(CNC(=O)Cc3ccc(Cl)c(Cl)c3)c2c(=O)n1C1CCC(=O)NC1=O` (centres unmarked) [Example 6.42, 2-(3,4-Dichloro-Phenyl)-N-[3-(2,6-Dioxo-Piperidin-3-yl)-2-Methyl-4-Oxo-3,4-Dihydro-Quinazolin-5-ylmethyl]-Acetamide] gave a melting point of 262 to 264 °C.

In turn, `O=C1CCC(n2cnc3cccc(Cl)c3c2=O)C(=O)N1` (centres unmarked) [Example 6.12, 3-(5-Chloro-4-Oxo-4H-Quinazolin-3-yl)-Piperidine-2,6-Dione] showed a melting point of 308 to 310 °C.

In the case of `Cc1nc2cccc(CNC(=O)CC(C)(C)C)c2c(=O)n1C1CCC(=O)NC1=O` (centres unmarked) [Example 6.33, N-[3-(2,6-Dioxo-Piperidin-3-yl)-2-Methyl-4-Oxo-3,4-Dihydro-Quinazolin-5-ylmethyl]-3,3-Dimethyl-Butyramide], the melting point fell in the range of 212 to 214 °C.

In turn, `Cc1ccc(CC(=O)NCc2cccc3nc(C)n(C4CCC(=O)NC4=O)c(=O)c23)cc1F` (centres unmarked) [Example 6.44, N-[3-(2,6-Dioxo-Piperidin-3-yl)-2-Methyl-4-Oxo-3,4-Dihydro-Quinazolin-5-ylmethyl]-2-(3-Fluoro-4-Methyl-Phenyl)-Acetamide] gave a melting point of 264 to 266 °C.

For `Cc1nc2cccc(CNC(=O)OC(C)(C)C)c2c(=O)n1C1CCC(=O)NC1=O` (centres unmarked) [Example 6.28, [3-(2,6-Dioxo-Piperidin-3-yl)-2-Methyl-4-Oxo-3,4-Dihydro-Quinazolin-5-ylmethyl]-Carbamic Acid Tert-Butyl Ester], the melting point fell in the range of 206 to 208 °C.

As to `Cc1nc2cccc(CNC(=O)Cc3ccccc3)c2c(=O)n1C1CCC(=O)NC1=O` (centres unmarked) [Example 6.38, N-[3-(2,6-Dioxo-Piperidin-3-yl)-2-Methyl-4-Oxo-3,4-Dihydro-Quinazolin-5-ylmethyl]-2-Phenyl-Acetamide], the melting point lay in the range of 275 to 277 °C.

In turn, `CCc1nc2cccc(C)c2c(=O)n1C1CCC(=O)NC1=O` (centres unmarked) [Example 6.13, 3-(2-Ethyl-5-Methyl-4-Oxo-4H-Quinazolin-3-yl)-Piperidine-2,6-Dione] had a melting point of 228 to 230 °C.

On to `Cc1cccc2nc(C)n(C3CCC(=O)NC3=O)c(=O)c12` (centres unmarked) [Example 6.2, 3-(2,5-Dimethyl-4-Oxo-4H-Quinazolin-3-yl)-Piperidine-2,6-Dione], for which the melting point is 292 to 294 °C.

On to `Cc1nc2cccc(CNC(=O)Cc3ccc(C(F)(F)F)cc3)c2c(=O)n1C1CCC(=O)NC1=O` (centres unmarked) [Example 6.45, N-[3-(2,6-Dioxo-Piperidin-3-yl)-2-Methyl-4-Oxo-3,4-Dihydro-Quinazolin-5-ylmethyl]-2-(4-Trifluoromethyl-Phenyl)-Acetamide], for which the melting point fell in the range of 199 to 201 °C.

`Cc1nc2cccc(CNC(=O)c3ccccc3)c2c(=O)n1C1CCC(=O)NC1=O` (centres unmarked) [Example 6.55, N-[3-(2,6-Dioxo-Piperidin-3-yl)-2-Methyl-4-Oxo-3,4-Dihydro-Quinazolin-5-ylmethyl]-Benzamide]: the melting point lay in the range of 247 to 249 °C.

Turning to `Cc1nc2cccc(CNC(=O)c3cccc(F)c3)c2c(=O)n1C1CCC(=O)NC1=O` (centres unmarked) [Example 6.52, N-[3-(2,6-Dioxo-Piperidin-3-yl)-2-Methyl-4-Oxo-3,4-Dihydro-Quinazolin-5-ylmethyl]-3-Fluoro-Benzamide], the melting point is 240 to 242 °C.

For the compound `Cc1cccc2nc(C(F)(F)F)n(C3CCC(=O)NC3=O)c(=O)c12` (centres unmarked) [Example 6.15, 3-(5-Methyl-4-Oxo-2-Trifluoromethyl-4H-Quinazolin-3-yl)-Piperidine-2,6-Dione], the melting point lay in the range of 308 to 310 °C.

As for `Cc1nc2cccc(CNC(=O)c3ccc(Cl)cc3)c2c(=O)n1C1CCC(=O)NC1=O` (centres unmarked) [Example 6.51, 4-Chloro-N-[3-(2,6-Dioxo-Piperidin-3-yl)-2-Methyl-4-Oxo-3,4-Dihydro-Quinazolin-5-ylmethyl]-Benzamide], the melting point was 276 to 278 °C.

As for `Cc1ccc(NC(=O)NCc2cccc3nc(C)n(C4CCC(=O)NC4=O)c(=O)c23)cc1C` (centres unmarked) [Example 6.48, 1-(3,4-Dimethyl-Phenyl)-3-[3-(2,6-Dioxo-Piperidin-3-yl)-2-Methyl-4-Oxo-3,4-Dihydro-Quinazolin-5-ylmethyl]-Urea], the melting point lay within 241 to 243 °C.

With `Cc1nc2cccc(CN)c2c(=O)n1C1CCC(=O)NC1=O.Cl` (centres unmarked), the melting point is 256 °C (dec.).
